We go through two molecules from patent US10344279B2, “Methods for the prevention and the treatment of extracapillary glomerulonephritis” (INSERM (Institut National de la Sante et de la Recherche …, priority 2014, dated 2019).

The subject of series [1] is phospho-STAT3 (Tyr705). Nature of the series: Western blot of phospho-STAT3 in glomeruli / kidney cortex of NTS-challenged mice. In kind it is in vivo. The note with it: Stattic 25 mg/kg i.p. every other day, started with NTS; 129S2 mice; after 10 days of RPGN; vs vehicle. As for the experimental part:
(§1) Podocyte-specific disruption of Stat3 mice were generated by crossing podocin-Cre positive mice (63) with Stat3 floxed mice (64) on C57BL6/J background. Their age-matched littermates with no deletion of Stat3 in any cells are considered as controls. […] Stattic (25 mg/kg) was administered in i.p. way every other day for 10 days. 10 weeks old 129S2/SvPasCr male mice were randomly treated with Stattic and were compared to vehicle-treated (DMSO) littermates.
(§2) The glomerulonephritis was induced on male mice (10-12 weeks of age) by intravenous injection of 15 μL of sheep anti-glomerular basement membrane (GBM) nephrotoxic serum (NTS), which was diluted with 85 μL of sterile phosphate buffer solution. Serum injections were repeated twice (on days 2 and 3) at 6 μL/g of body weight and 7 μL/g respectively.
Mouse kidneys were extracted, minced, and digested in 2 mg/mL collagenase I solution (Gibco) in RPMI 1640 (Invitrogen) at 37° C. for 3 minutes, then filtered through a 70-μm cell strainer and one more through a 40-μm cell strainer. […] Podocyte outgrowth area was quantified at day 4 using ImageJ software.
After extraction from glomeruli or podocytes with lysis buffer, proteins were quantified by BCA protein assay kit (iNtRON Biotechnology). […] Protein loading was monitored by using the rat anti-tubulin antibody (Abeam). […] Densitometric analysis with ImageJ software was used for quantification.

Series [2] relates to NTS-challenged mice. The experiment in a line: NTS-induced crescentic glomerulonephritis (RPGN): albuminuria, BUN, crescentic glomeruli. In kind it is in vivo. On the procedure: as §1, §2
Urinary creatinine and blood urea nitrogen (BUN) concentrations were analyzed by a standard colorimetric method (Olympus AU400) at the Biochemistry Laboratory of Institut Claude Bernard (IFR2, Faculté de Médecine Paris Diderot). Urinary albumin excretion was measured using a specific ELISA assay for quantitative determination of albumin in mouse urine (CellTrend GmbH).
Kidneys were harvested and fixed in 4% formal. Paraffin-embedded sections (5 μm thick) were stained by Masson's trichrome to evaluate kidney morphology and determine proportion of crescentic glomeruli by a blinded examination on at least 50 glomeruli per section.
(§3) For preventive strategy, antagomiR treatment (12 mg/kg) started 3 days before NTS injection. AntagomiRs (VBC biotech, Vienna) were delivered by retro-orbital i.v. injections under brief anesthesia. Second and third injections were performed on days 1 and 3 with NTS injection. For curative strategy, antagomir were injected on days 4, 5 and 8 after NTS. A scramble antagomiR (Antagomir-Control) was used as control. The sequences were obtained from previously published manuscript (66). In the miR-92 antagomir and control antagomir, the 2′O RNA base are methylated followed by first two bases and last 3 bases are phosphorothiated to increase the stability of antagomir from degradation. In addition, a cholesterol-TEG was added at the 3′ for easy entry of antagomir into the cells. AntagomiR-Control (SEQ ID NO: 7, anti-miR-ctrl): 5′-[…]-3′ and antagomiR-92a (SEQ ID NO: 8, anti-miR-92a): 5′-[…]-3′ as shown to be effective after in vivo administration in kidneys (34, 67). Saline-treated mice were used as control of the scramble antagomiR.

In series [3] the test system is primary podocytes. Nature of the series: Wound assay of podocyte migration. Conditions: Stattic 2 μM, migration within 12 hours. It is filed as cell-based, mouse. On the procedure:
After 4 days of primary culture, podocytes were trypsinized then plated into μ-Dish 35 mm high with Culture-Insert (Ibidi). Ibidi's wounding inserts were used for cell migration studies. The coverage of the 500-μm gap was assessed after 12 hours of culture and podocyte migration area was quantified using ImageJ software. The effects of HB-EGF (10 ng/mL, Preprotech) or AG1478 (1 μM, Calbiochem) or anti-mIL-6 monoclonal antibody MP5-20F3 (10 μg/mL, eBiosciences) or Stattic (2 μM, Calbiochem) on differentiated podocytes was applied during 16 hours. After stimulation, podocytes were scrapped in Phosphosafe buffer for protein extraction or in RLT buffer for total RNA extraction.

Series [4] concerns miR-92a. The experiment in a line: RT-qPCR for miR-92a in transfected primary podocytes. It is filed as cell-based, mouse. Conditions: transfection with anti-miR-92a inhibitor (Ambion, 50 nM); normalized to U6. For orientation: Quantitative PCR measures a nucleic acid by following its amplification.
Series [5] relates to STAT3. The experiment in a line: STAT3 protein level in anti-miR-92a transfected podocytes. It is filed as cell-based, mouse. The note with it: data not shown. As for the experimental part: Anti-miR-Control#1 was used as control (All from Ambion, 50 nM).
The test system of series [6] is p57. Nature of the series: p57 protein expression in transfected podocytes (western blot, immunofluorescence). In kind it is cell-based, mouse. The note with it: anti-miR-92a transfected podocytes. As for the experimental part: (§4) Deparaffinized kidney sections were incubated for 30 minutes at 95° C. in the target retrieval solution (S1699, Dako), then in peroxidase blocking reagent (S2001, Dako), blocked in PBS containing 5% BSA and immunostained against phospho-STAT3 (Tyr705) (Cell Signaling Technology) and phospho-STAT3 (Tyr705) (Millipore), STAT3 (Cell Signaling Technology), podocalyxin (R&D systems), Ki-67 (Abeam) and p57 (Santa Cruz Technology). […] For STAT3 and podocalyxin immunofluorescence, primary antibody incubation was followed by a secondary rabbit anti-goat IgG AF488-conjugated antibody (Invitrogen, 1:400) and a secondary rabbit anti-goat IgG AF594-conjugated antibody (Invitrogen, 1:400) respectively. Podocyte culture cells were immunostained against podocin (ab50339 Abeam), nephrin (ab58968 Abeam), WTI (ab15249 Abeam) or p57 (Santa Cruz Biotechnology). The nuclei were stained using DAPI. Images were obtained with an Axioimager Z1 apotome (Zeiss).
After extraction from glomeruli or podocytes with lysis buffer, proteins were quantified by BCA protein assay kit (iNtRON Biotechnology). Samples were resolved on 4-12% Bis-Tris Criterion XT gels (Bio-Rad) then transferred to a polyvinylidene difloride membrane. […] Protein loading was monitored by using the rat anti-tubulin antibody (Abeam). […] Densitometric analysis with ImageJ software was used for quantification. […]
On the technique in general: Immunoblotting shows a protein as a band on a membrane.

Series [7] concerns p57. The experiment in a line: p57 immunostaining on kidney sections of NTS-challenged mice. It is filed as in vivo. Conditions: NTS-induced decrease; anti-miR-92a administration. As for the experimental part:
as §4
For preventive strategy, antagomiR treatment (12 mg/kg) started 3 days before NTS injection. AntagomiRs (VBC biotech, Vienna) were delivered by retro-orbital i.v. injections under brief anesthesia. Second and third injections were performed on days 1 and 3 with NTS injection. For curative strategy, antagomir were injected on days 4, 5 and 8 after NTS. A scramble antagomiR (Antagomir-Control) was used as control. […]

Series [8] relates to miR-17, miR-18a, miR-19a and miR-20a. Nature of the series: RT-qPCR of other miR-17-92 cluster members in isolated glomeruli of NTS-challenged mice. It is filed as in vivo. The note with it: antagomiR 12 mg/kg i.v., preventive strategy; 10 days after NTS. As for the experimental part:
[…] U6 snRNA was used as endogenous control.
as §3

Where [9] appears, read: Stattic 25 mg/kg i.p. every other day, day 10 after NTS, 129S2 mice.
Where [10] appears, read: antagomiR 12 mg/kg i.v., preventive strategy, 10 days after NTS, vs anti-miR-ctrl or vehicle.

Turning to `O=[N+]([O-])c1ccc2c(c1)S(=O)(=O)C=C2` [Stattic], the “STAT3 (Tyr705) phosphorylation in glomeruli” value in series [1] is reported as “significantly reduced”. For the same molecule, in series [2] (setting [9]), the “albuminuria (urinary albumin excretion rate)” value was “trend to decreased”, the “alleviation of the rise in blood urea nitrogen (BUN) concentrations” value was determined as 50% and the “proportion of crescentic glomeruli” value is listed as “reduced”. Also, the “migratory phenotype of podocytes” value in series [3] is “inhibited”. Also, in series [3] (listed as STAT3 inhibitor), the “migratory phenotype of podocytes” value is listed as “little or no effect”.

For “anti-miR-92a: 2′O-methylated, end-phosphorothioated antagomir with 3′ cholesterol-TEG, SEQ ID NO: 8, 5′-CAGGCCGGGACAAGUGCAAUA-3′ (VBC biotech) (listed as RNA, chemistry not fully specified)”, in series [2] (setting [10]), the “kidney dysfunction (blood urea nitrogen concentrations)” value is given as “strong decrease” and the urinary albumin excretion result is given as “strong decrease”. Further, the glomerular crescents formation in series [2] (antagomiR 12 mg/kg i.v., preventive strategy, vs NTS+anti-miR-ctrl, P<0.05) is reported as -44%. In series [2] (antagomir injection on days 4, 5 and 8 after NTS, read at day 10), the “results in curative strategy (miR-92a expression, albuminuria, BUN, p57-positive cells)” value is “validated”. For the same molecule, in series [4], the “miR-92a expression in primary culture of podocytes, change” value is on record as −71%. Moreover, the STAT3 protein level result in series [5] was “did not affect”. The p57 expression result in series [6] is reported as “increase”. The “p57 expression in glomeruli” value in series [7] is “rescued”. In addition, in series [8], the “levels of others miR of 17-92 cluster in isolated glomeruli” value is reported as “without modify”.
